Active and inactive are the calls of the source. The rule behind the calls is not given here.
Biological target: Ubiquitin-conjugating enzyme E2 N (Homo sapiens) (UniProt P61088)
Assay: NMR detection of UBE2N ligand binding – biophysical, purified protein (AID 1552)
Details: NMR binding to purified UBE2N

Chain of Ubiquitin-conjugating enzyme E2 N (Homo sapiens) (P61088 whole entry, looked up): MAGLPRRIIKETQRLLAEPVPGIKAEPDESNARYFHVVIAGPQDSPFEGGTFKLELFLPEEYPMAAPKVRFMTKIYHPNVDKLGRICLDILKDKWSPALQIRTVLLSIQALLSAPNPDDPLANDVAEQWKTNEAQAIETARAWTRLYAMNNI

| SMILES | Kd |
| --- | --- |
| O=C(NCc1cccs1)c1nc2ncccn2n1 | > 4 mM (inactive) |
| O=c1sc2ccccc2n1CN1CCOCC1 | > 4 mM (inactive) |
| FC(F)(F)c1cc(-c2ccco2)nc(N2CCOCC2)n1 | > 4 mM (inactive) |
| O=C1NC(=S)NC(=O)C1=Cc1ccncc1 | > 4 mM (inactive) |
| COc1ccc(-c2cc(=O)c3c(OC(C)=O)cc(OC(C)=O)cc3o2)cc1 | > 4 mM (inactive) |
| Cc1occc1C(=O)Nc1ccc2c(c1)OCO2 | > 4 mM (inactive) |
| O=C(c1cc(-c2ccccc2)on1)N1CCCC1 | > 4 mM (inactive) |
| CCOC(=O)c1[nH]cnc1C(=O)OC(C)C | > 4 mM (inactive) |
| CCOC(=O)CNc1ncnc2c1nnn2CC | > 4 mM (inactive) |
| COc1ccccc1NC(=O)c1ccc(Br)o1 | > 4 mM (inactive) |
| O=C(O)/C=C1\NC(=O)c2ccccc21 | > 4 mM (inactive) |
| O=C(/C=C/c1ccc(O)cc1)c1ccc(O)cc1O | > 4 mM (inactive) |
| Cn1c(=O)n(-c2cccc(Cl)c2)c(=O)n1C | > 4 mM (inactive) |
| COc1cc([C@@H]2c3cc4c(cc3[C@H](OC(C)=O)[C@H]3COC(=O)[C@@H]23)OCO4)cc(OC)c1OC | > 4 mM (inactive) |
| Cc1cc2ncc(C(=O)Nc3ccccc3)c(C)n2n1 | > 4 mM (inactive) |
| O=C(Nc1cnccn1)c1cccc(C(F)(F)F)c1 | > 4 mM (inactive) |
| Cc1cc(C)n(/N=C\c2cccs2)c(=O)c1C(N)=O | > 4 mM (inactive) |
| O=C(c1ccncc1)N1CCN(C(=O)c2ccco2)CC1 | > 4 mM (inactive) |
| Cc1ccc2c(c1)=C(c1sc(N)nc1O)C(=O)N=2 | > 4 mM (inactive) |
| C=C[C@H]1CN2CC[C@H]1C[C@H]2[C@H](O)c1ccnc2ccccc12 | > 4 mM (inactive) |
| COc1cc2c(c(OC)c1OC)-c1ccc(OC)c(=O)cc1[C@@H](NC(C)=O)CC2 | > 4 mM (inactive) |
| CCOc1nc(C)ccc1-c1noc(-c2ccco2)n1 | > 4 mM (inactive) |
| c1ccc(CCNc2ncnc3nc[nH]c23)cc1 | > 4 mM (inactive) |

| SMILES | Kd |
| --- | --- |
| Nc1nsc(-c2ccccc2)n1 | > 4 mM (inactive) |
| N#Cc1cn(CC(=O)N2CCCC2)c2ccccc12 | > 4 mM (inactive) |
| COc1ccc(C(=O)NC2=NCCS2)cc1OC | > 4 mM (inactive) |
| CC(=O)N1CC2(C)CN(C(C)=O)CC(C)(C1)C2 | > 4 mM (inactive) |
| O=C1NC(=O)C(C2SC(=O)NC2=O)S1 (stereo unspecified) | > 4 mM (inactive) |
| CC(=O)NN1C(=O)c2cccc3cccc(c23)C1=O | > 4 mM (inactive) |
| COc1ccc(O)c(-c2cn[nH]c2-c2cccs2)c1 | > 4 mM (inactive) |
| Cc1ccc(SCc2nc(-c3cccnc3)no2)cc1 | > 4 mM (inactive) |
| COc1ccc(-c2ccc(=O)n(CC(N)=O)n2)cc1 | > 4 mM (inactive) |
| CSc1ccccc1NC(=O)c1cnccn1 | > 4 mM (inactive) |
| Cc1nnc(SCC(=O)NC2CCCC2)[nH]c1=O | > 4 mM (inactive) |
| CC(=O)c1ccc(-n2ccnc2)cc1 | > 4 mM (inactive) |
| CC(=O)/C=C\[C@@H]1[C@@]2(C)CCCC(C)(C)C2CC[C@@]1(C)O (stereo partly specified) | > 4 mM (inactive) |
| COc1ccccc1-c1cn[nH]c(=S)n1 | > 4 mM (inactive) |
| O=C(O)c1cn(-c2ccccc2)nc1-c1ccncc1 | > 4 mM (inactive) |
| O=C(OCc1c(Cl)cccc1Cl)c1cnccn1 | > 4 mM (inactive) |
| Oc1ccc(-c2n[nH]c(=S)n2Cc2ccco2)cc1 | > 4 mM (inactive) |
| Cn1nc(C(=O)N2CCOCC2)c2ccccc2c1=O | > 4 mM (inactive) |
| Nc1ccc(S(=O)(=O)N2CCCCC2)cc1 | > 4 mM (inactive) |
| Cn1nc(C(=O)N2CCCC2)c2ccccc2c1=O | > 4 mM (inactive) |
| Cc1cc(C(=O)N2CCOCC2)c(C)o1 | > 4 mM (inactive) |
| CCc1c(C)n([O-])c2c([n+]1=O)CCC2 | > 4 mM (inactive) |
| COc1c2c(cc3c1OCO3)CCN(C)C2 | > 4 mM (inactive) |

| SMILES | Kd |
| --- | --- |
| O=C1NC(=S)NC(=O)C1=Cc1ccccc1O | > 4 mM (inactive) |
| CCC1(CC)C(=O)N=C(N)NC1=O | > 4 mM (inactive) |
| C/C(=C\CO)CC[C@H](C)CCC[C@H](C)CCCC(C)C | > 4 mM (inactive) |
| C[C@H]1OC(O[C@H]2[C@@H](O)CC(O[C@H]3[C@@H](O)C[C@H](O[C@H]4CC[C@]5(C)C6CC[C@]7(C)[C@@H](C8=CC(=O)OC8)[C@@H](O)C[C@]7(O)[C@@H]6CC[C@@H]5C4)O[C@@H]3C)O[C@@H]2C)C[C@H](O)C1O (stereo partly specified) | > 4 mM (inactive) |
| NC(=O)C1CCN(C2CC(=O)NC2=O)CC1 (stereo unspecified) | > 4 mM (inactive) |
| C=C1C2CC[C@@]3(C)[C@H](c4ccoc4)OC(=O)C[C@]13O[C@H]1CC(=O)C(C)(C)C(CC(=O)OC)C21C (stereo partly specified) | > 4 mM (inactive) |
| CN(C)C(=O)Nc1ccc2c(c1)nnn2C | > 4 mM (inactive) |
| CC(=O)Nc1cc2c(cc1C(=O)C(C)C)OCCO2 | > 4 mM (inactive) |
| COC(=O)C1CCN(c2ccc(Cl)nn2)CC1 | > 4 mM (inactive) |
| O=C(NN1C(=O)c2ccccc2C1=O)c1cccs1 | > 4 mM (inactive) |
| Cc1cc(F)c(F)c(C(=O)NC2CC2)c1Cl | > 4 mM (inactive) |
| O=C1CCNc2ccccc2N1 | > 4 mM (inactive) |
| CN(C)C(=O)CSc1cccc2cccnc12 | > 4 mM (inactive) |
| O=C1CCC(=O)N1c1cccc([N+](=O)[O-])c1 | > 4 mM (inactive) |
| COC(=O)CCC(C)[C@H]1CCC2C3C(C[C@H](O)[C@@]21C)[C@@]1(C)CC[C@@H](O)C[C@H]1C[C@H]3O (stereo partly specified) | > 4 mM (inactive) |
| CCN1C[C@@]2(COC)C3[C@@H](OC)[C@H]4[C@@H]1[C@]3(C(OC)C[C@H]2O)C1C[C@@]2(O)[C@H](OC(=O)c3ccccc3)C1[C@]4(OC(C)=O)[C@@H](O)[C@@H]2OC (stereo partly specified) | > 4 mM (inactive) |
| CN1CCn2c1nc(N1CCCCC1)nc2=O | > 4 mM (inactive) |
| Cc1c(C(=O)Nc2ccccn2)oc2ccccc12 | > 4 mM (inactive) |
| O=C(O)CN(CCCc1ccccc1)CC(=O)O | > 4 mM (inactive) |
| O=C(CCc1ccc(O)cc1)c1c(O)cc(O)cc1O | > 4 mM (inactive) |
| C=CCc1cc(C(=O)N2CCCCC2)ccc1O | > 4 mM (inactive) |
| O=C(Nc1ccccc1N1CCCC1)c1cccnc1 | > 4 mM (inactive) |
| Cc1occc1C(=O)Nc1sccc1C(N)=O | > 4 mM (inactive) |

| SMILES | Kd |
| --- | --- |
| CC1(C)C(=O)[C@@H]2C[C@@]3(O)C4=CC(=O)O[C@@H](c5ccoc5)[C@]4(C)CCC3C(C)(C2=O)[C@H]1CC(=O)O (stereo partly specified) | > 4 mM (inactive) |
| CN1CN/C(=N\[N+](=O)[O-])N(c2ccccc2)C1 | > 4 mM (inactive) |
| CC(=O)Nc1cccc(Cn2cccn2)c1 | > 4 mM (inactive) |
| COc1ccc(-c2coc3cc(O)ccc3c2=O)cc1 | > 4 mM (inactive) |
| C[n+]1cccc(C(=O)[O-])c1 | > 4 mM (inactive) |
| COc1ccc(C(C)=O)c(O)c1 | > 4 mM (inactive) |
| OCCNc1nc2ccc(Cl)cc2[nH]1 | > 4 mM (inactive) |
| N#CCN1C(=O)c2ccccc2S1(=O)=O | > 4 mM (inactive) |
| CC(=O)OCC[C@H](C)CCC=C(C)C | > 4 mM (inactive) |
| [O-][n+]1c2ccccc2[n+]([O-])c2cc(O)ccc21 | > 4 mM (inactive) |
| COc1cc2c(cc1O)[C@@H](Cc1ccc(O)cc1)[N+](C)(C)CC2 | > 4 mM (inactive) |
| Nc1nc2[nH]c(=O)c(=O)[nH]c2c(=O)[nH]1 | > 4 mM (inactive) |
| Cn1cnnc1Sc1ncnc(N)c1[N+](=O)[O-] | > 4 mM (inactive) |
| CCCn1c(S(=O)(=O)O)nc2ccccc21 | > 4 mM (inactive) |
| c1coc(CNc2ncnc3nc[nH]c23)c1 | > 4 mM (inactive) |
| COc1cc(C(=O)NCC2CCCO2)cc(OC)c1OC (stereo unspecified) | > 4 mM (inactive) |
| O=C1CCc2ccccc2CN1 | > 4 mM (inactive) |
| C=C[C@H]1CN2CC[C@H]1C[C@@H]2[C@H](O)c1ccnc2ccccc12 | > 4 mM (inactive) |
| O=c1ccn(Cc2ccccc2)c(=O)n1Cc1ccccc1 | > 4 mM (inactive) |
| CCN(CC)c1nc2n(c(=O)n1)CCO2 | > 4 mM (inactive) |
| CCCCCC(=O)Cc1cc(O)cc(O)c1C(=O)Oc1cc(CC(=O)CCCCC)c(C(=O)O)c(OC)c1 | > 4 mM (inactive) |
| CC1(NC(=O)NCc2ccccc2)CCS(=O)(=O)C1 (stereo unspecified) | > 4 mM (inactive) |
| O=C1C2CCCCC2C(=O)N1c1nccs1 (stereo unspecified) | > 4 mM (inactive) |

| SMILES | Kd |
| --- | --- |
| Cc1cccn2cc(CNc3ccccc3)nc12 | > 4 mM (inactive) |
| COC(=O)Nc1c(C)n(C)n(-c2ccccc2)c1=O | > 4 mM (inactive) |
| Nc1c(Nc2ccccc2)c2ccccc2oc1=O | > 4 mM (inactive) |
| COC(=O)C1=CO[C@@H](O[C@@H]2O[C@H](CO)[C@@H](O)[C@H](O)[C@H]2O)[C@@H]2[C@@H](C)[C@@H](O)C[C@H]12 | > 4 mM (inactive) |
| NCc1ccc(-n2cccn2)cc1 | > 4 mM (inactive) |
| O=C(CC1SC(=O)NC1=O)Nc1nccs1 (stereo unspecified) | > 4 mM (inactive) |
| NCc1ccc2c(c1)OCCCO2 | > 4 mM (inactive) |
| COC(=O)c1ccc(/C=C2/NC(=S)NC2=O)cc1 | > 4 mM (inactive) |
| CC(=O)O[C@@H]1C=C[C@@]2(C)C(C[C@@H](OC(C)=O)[C@@]3(C)C4=CC(=O)O[C@@H](c5ccoc5)[C@]4(C)CCC23)C1(C)C (stereo partly specified) | > 4 mM (inactive) |
| Oc1ccccc1-c1cc(C(F)(F)F)[nH]n1 | > 4 mM (inactive) |
| COC(=O)c1c(C)cc(OC(=O)c2c(C)cc(O)c(C=O)c2O)c(C)c1O | > 4 mM (inactive) |
| CCOC(=O)c1c(C)nc2sccn12 | > 4 mM (inactive) |
| CN1CCC(NC(=O)c2cccnc2)CC1 | > 4 mM (inactive) |
| Cc1cc(C(=O)N2CCN(c3ccccn3)CC2)c(C)o1 | > 4 mM (inactive) |
| Nc1cc(N)nc(SCc2cccnc2)n1 | > 4 mM (inactive) |
| NC1=NC(=O)/C(=C/c2cccc([N+](=O)[O-])c2)S1 | > 4 mM (inactive) |
| Nc1ccc(NC(=O)c2ccco2)c(Cl)c1 | > 4 mM (inactive) |
| O=C1c2ccccc2C(=O)N1/N=C/c1ccc[nH]1 | > 4 mM (inactive) |
| O=C(CCc1n[nH]c(=O)[nH]c1=O)NCc1ccccc1 | > 4 mM (inactive) |

Reference: PubChem BioAssay AID1552 (Sanford-Burnham Center for Chemical Genomics, 2009)
